These are literature values, as cited in patent publication US11759449B2, “Methods for reducing oxidative effects of free radicals” (Hugg LLC, priority 2021, dated 2023).

For data set [1] the following is noted: background, refs (2, 3).
The conditions of data set [2]: background, refs (2, 3). The source holds these as a separate data set.

As to `Oc1ccc(C=Cc2cc(O)cc(O)c2)cc1` [resveratrol], in data set [1], the bioavailability result was “poor”. Also, the solubility result in data set [2] is on record as “poor”.
